Key:
in vivo = format: in vivo; settings: nude, mouse, in vivo
[1] = tested on: normal mouse spleen B lymphocytes induced by LPS; assay: 3H-TdR incorporation, LPS-induced B lymphocyte proliferation; format: cell-based, BALB/c mice; settings: read-out: IC50, proliferation of B lymphocytes induced by LPS
Experimental: ^3H-thymidine incorporation was adopted to measure the effect of the in vitro administered compound on the proliferation function of the spleen lymphocytes of normal mice induced by a mixed culture of mitogen/allogeneic mouse spleen lymphocytes, and evaluate the in vitro immunosuppressive activity of the compound.
Measurement of the effects of compounds on the proliferation function of mouse spleen lymphocytes induced by mitogen by ^3H-TdR incorporation: 100 μl cell suspension of mouse spleen lymphocytes was inoculated on a 96-well plate (4×10^5 per well), followed by addition of 50 μl of ConA (final concentration: 5 μg/ml), 50 μl of LPS (final concentration: […]) or 50 μl of compound at different concentrations. The total volume of each well was 200 μl. The test was carried out in triplicate wells for each concentration, and included control wells without ConA/LPS or the compound. After the 96-well plate was placed in an incubator at 37° C. with 5% CO2 for 48 hours, 25 μl of ^3H-thymidine (10 μCi/ml) was added in each well 8 hours before the end of incubation. […] The amount of ^3H-TdR incorporated in cell DNA was determined by a Beta cell counter (MicroBeta Trilux, PerkinElmer), and the cell proliferation was represented as a cpm value.

[2] = tested on: allogeneic antigen-induced mouse spleen lymphocytes; assay: Mixed lymphocyte culture, 3H-TdR incorporation; format: cell-based, C57BL/6 and BALB/C mice
Experimental: Preparation of Stimulator Cells: a Cell Suspension of Balb/C Mouse Spleen Lymphocytes was irradiated by cesium 137 at 3000 Rads using a Gamma radiometer (Gammacell 3000) to make the cells lose their proliferation ability. After washed by RPMI-1640 for 2 times, the cell concentration was adjusted to 5×10^6/ml.
Preparation of responder cells: C57BL/6 mouse spleen lymphocytes were used as the responder cells, and the cell concentration was 5×10^6/ml.
Mixed lymphocyte culture: 50 μl cell suspension of C57BL/6 mouse spleen lymphocytes was inoculated on a 96-well plate, and 50 μl cell suspension of BALB/C mouse spleen lymphocytes treated by cesium 137 was added therein, followed by addition of 50 μl compound at different concentrations. The total volume for each well was 200 μl. If the total volume was less than 200 μl, it was supplemented with RMPI-1640 medium. The tests were divided into 3 groups, i.e., BALB/C mouse group, C57BL/6 mouse group and BALB/C and C57BL/6 mice mixed culture group. The test was carried out in triplicate wells for each concentration, and included control wells without the compound, with only the stimulator cells and with only the responder cells. The 96-well plate was incubated in an incubator at 37° C. with 5% CO2 for 3 to 5 days. 8 hours before the end of incubation, 25 μl of ^3H-thymidine (10 μCi/ml) was added in each well. After the incubation was completed, cells were harvested by a cell harvester on a glass fiber film. After addition of a scintillation fluid, the amount of ^3H-TdR incorporated in cell DNA was determined by a Beta cell counter (MicroBeta Trilux, PerkinElmer), and the cell proliferation was represented as a cpm value.

[3] = tested on: DNFB-induced delayed type hypersensitivity reaction; assay: DNFB-induced delayed type hypersensitivity reaction in mice; format: in vivo, BALB/c mice; settings: 1.5 mg/kg/d, intraperitoneal injection; model control 0.175 mm
Experimental: The delayed type hypersensitivity (DTH) reaction in mice was induced by DNFB to evaluate the inhibition effect of the compound on DTH in vivo. […] Preparation method: the compound was dissolved in anhydrous alcohol to prepare a stock solution (50 mg/ml), which was diluted to the desired concentration when use by using a solution of 5% PEG400, 5% Tween-80 in sterile water as a solvent. […] DNFB combined with dermal protein to form a complete antigen after sensitizing on feet of mice. One week later, mice were attacked by DNFB on ears to induce a local delayed allergic reaction, i.e., the delayed type hypersensitivity reaction to cause ear swelling, while the delayed type hypersensitivity reaction would not be observed on the ear which had not been attacked. Therefore, the ear swelling can reflect the level of the delayed type hypersensitivity reaction in mice induced by DNFB. (1) 20 μl of 0.5% DNFB solution in a mixture of acetone and olive oil (4:1) as a solvent was applied on both hind legs of mice for sensitization. […] (4) Thickness of the left and right ears of the mice was measured by a micrometer screw gauge, and the swelling was calculated by subtracting the thickness of the left ear from thickness of the right ear.

CO[C@H]1C[C@@H]2CC[C@@H](C)[C@@](O)(O2)C(=O)C(=O)N2CCCC[C@H]2C(=O)O[C@H]([C@H](C)C[C@@H]2CC[C@@H](O)[C@H](OC)C2)CC(=O)[C@H](C)/C=C(\C)[C@@H](O)[C@@H](OC)C(=O)[C@H](C)C[C@H](C)/C=C/C=C/C=C/1C [Rapamycin]
AUC0-t (ng · h/g or ng · h/ml) (in vivo): 1455 ng·h/mL | Sirolimus concentration, Liver, Mean Value (in vivo; 0.5 h): 473 ng/g | Sirolimus concentration, Tumor, Mean Value (in vivo; 0.5 h): 20.6 ng/g | Sirolimus concentration, Blood Plasma, Mean Value (in vivo; 2 h): 121 ng/mL | Sirolimus concentration, Liver, Mean Value (in vivo; 2 h): 193 ng/g | Sirolimus concentration, Tumor, Mean Value (in vivo; 2 h): 50.8 ng/g | Sirolimus concentration, Blood Plasma, Mean Value (in vivo; 5 h): 84.7 ng/mL | Sirolimus concentration, Liver, Mean Value (in vivo; 5 h): 139 ng/g | Sirolimus concentration, Tumor, Mean Value (in vivo; 5 h): 41.7 ng/g | Sirolimus concentration, Liver, Mean Value (in vivo; 12 h): 54.2 ng/g | Sirolimus concentration, Tumor, Mean Value (in vivo; 12 h): 33.2 ng/g | Sirolimus concentration, Blood Plasma, Mean Value (in vivo; 48 h): 4.04 ng/mL | Sirolimus concentration, Liver, Mean Value (in vivo; 48 h): 15.8 ng/g | Sirolimus concentration, Tumor, Mean Value (in vivo; 48 h): 25.9 ng/g | IC50 [1]: 48.8 nM | CPM Mean value ([2]; 0.1342 nM): 4788 | CPM Mean value ([2]; 0.3355 nM): 3157 | CPM Mean value ([2]; 0.8389 nM): 1955 | CPM Mean value ([2]; 2.0972 nM): 1638 | CPM Mean value ([2]; 32.768 nM): 956 | CPM Mean value ([2]; 81.9 nM): 1012 | CPM Mean value ([2]; 204.8 nM): 848 | CPM Mean value ([2]; 512 nM): 1068 | CPM Mean value ([2]; 1280 nM): 967 | CPM Mean value ([2]; 3200 nM): 840 | CPM Mean value ([2]; 8000 nM): 780 | CPM Mean value ([2]; 20000 nM): 362 | inhibition at 0.0001342 µM ([2]; Mus musculus, Lymphocyte, 0.1342 nM): 35% | inhibition at 0.0003355 µM ([2]; Mus musculus, Lymphocyte, 0.3355 nM): 57% | inhibition at 0.0008389 µM ([2]; Mus musculus, Lymphocyte, 0.8389 nM): 73% | inhibition at 0.0020972 µM ([2]; Mus musculus, Lymphocyte, 2.0972 nM): 78% | inhibition at 0.0052429 µM ([2]; Mus musculus, Lymphocyte, 5.2429 nM): 83% | inhibition at 0.013107 µM ([2]; Mus musculus, Lymphocyte, 13.107 nM): 83% | inhibition at 0.032768 µM ([2]; Mus musculus, Lymphocyte, 32.768 nM): 87% | inhibition at 0.0819 µM ([2]; Mus musculus, Lymphocyte, 81.9 nM): 86% | inhibition at 0.2048 µM ([2]; Mus musculus, Lymphocyte, 204.8 nM): 88% | inhibition at 0.512 µM ([2]; Mus musculus, Lymphocyte, 512 nM): 85% | inhibition at 1.28 µM ([2]; Mus musculus, Lymphocyte, 1280 nM): 87% | inhibition at 3.2 µM ([2]; Mus musculus, Lymphocyte, 3200 nM): 89% | inhibition at 8 µM ([2]; Mus musculus, Lymphocyte, 8000 nM): 89% | inhibition at 20 µM ([2]; Mus musculus, Lymphocyte, 20000 nM): 95% | average ear swelling degree [3]: 0.076 mm

From patent publication US8455510B2
